Experimental data: patent US7022648B2, “Plant seeds treated with N,N′-substituted ureas” (Stoller Enterprises, Inc., priority 1996, dated 2006)
“And” between values parts separate entries of the source, which are not always exact repeats. Equal entries are not always repeated.

Columns and labels:
Assay type in all cases: in vivo
Corn [1] = assay: Greenhouse pot test, seed treatment 0.01 M diformylurea; settings: seed treated, 24 h soak, 30 days
Method: (§1) Based upon the foregoing preliminary work, additional experiments to investigate the effect of diformylurea on other plant species was undertaken. These experiments were also designed to compare the effect of treating seeds as described above with foliar treatment. Wheat, corn and peanuts were selected for the next phase of this work. Diformylurea was prepared by reacting formic acid and urea at a molar ratio of 2:1 as described above. An aqueous solution containing diformylurea at a concentration of 0.01 M was prepared. For the seed treatment portion of the experiments, the seeds to be treated were soaked in the foregoing solution for about 24 hours before planting. The control seeds were again soaked in water for the same time. Both control and treated seeds were planted in 1 gallon greenhouse pots. Five seeds were planted in each pot. Each pot was thinned to two plants after germination. For the foliar treatment portion of the experiment, plants grown from untreated seeds were sprayed with a solution containing 0.01 M. diformylurea at the three leaf stage. All plants were watered and fertilized as required. Thirty days after planting, the plants were harvested and the roots and shoots examined. The mass of both the roots and shoots and the total mass of the plant in each pot were determined.

Peanuts [2] = assay: as above; settings: seed treated, 24 h soak, 30 days
Method: as §1

Wheat [3] = assay: as above; settings: seed treated, 24 h soak, 30 days
Method: as §1

Corn [4] = assay: Greenhouse pot test, foliar treatment 0.01 M diformylurea; settings: foliar treated, three leaf stage, 30 days
Method: as §1

Peanuts [5] = assay: as above; settings: foliar treated, three leaf stage, 30 days
Method: as §1

Wheat [6] = assay: as above; settings: foliar treated, three leaf stage, 30 days
Method: as §1

Corn [7] = assay: Greenhouse pot test, effect of diformylurea concentration applied to seeds; settings: seed treated, 24 h soak, 30 days; for Roots (gm), Average / Shoots (gm), Average / Total (gm), Average: average of samples; for Roots (gm) / Shoots (gm) / Total (gm): single sample (pot)
Method: Additional experiments were designed to study further the effect of the concentration of diformylurea applied to the seeds of several other crops. These experiments were conducted using cotton, rice, corn and soybeans. These experiments were similar to the preliminary experiments described above. The concentrate described above, containing both diformylurea and formate, was used to prepare solutions containing low, medium and high concentrations of diformylurea having, respectively, 0.001 M, 0.01 M and 0.05 M diformylurea. These solutions were used to treat the seeds of cotton, rice, corn and soybeans. Seeds of each of these crops were soaked in water or the prepared aqueous solutions of diformylurea for 24 hours before planting. Five seeds were planted in each of six, 1 gallon greenhouse pots. Pots were thinned to two plants after germination and the plants watered and fertilized as needed for 30 days. Thereafter, the plants were harvested and the mass of the roots, shoots and total mass determined.

`O=CNC(=O)NC=O` [diformylurea, N,N′-diformylurea] was tested, and the “Percent Change v. Control, Roots” value (Corn [1]) was 30%, the “Percent Change v. Control, Shoots” value (Corn [1]) was 16% and the “Percent Change v. Control, Total” value (Corn [1]) was 24%. For the same compound, the “Root/Shoot Ratio” value (Corn [1]) was 1.80, the “Roots (gm), Average” value (Corn [1]; average of samples) was 58.92 gm and the “Shoots (gm), Average” value (Corn [1]; average of samples) was 32.73 gm. The “Total (gm), Average” value (Corn [1]; average of samples) was 91.65 gm, the “Percent Change v. Control, Roots” value (Peanuts [2]) was 17% and the “Percent Change v. Control, Shoots” value (Peanuts [2]) was 31%. For the same compound, the “Percent Change v. Control, Total” value (Peanuts [2]) was 24%, the “Root/Shoot Ratio” value (Peanuts [2]) was 0.98 and the “Roots (gm), Average” value (Peanuts [2]; average of samples) was 19.93 gm. The “Shoots (gm), Average” value (Peanuts [2]; average of samples) was 20.30 gm, the “Total (gm), Average” value (Peanuts [2]; average of samples) was 40.23 gm and the “Roots (gm)” value (Peanuts [2]; single sample (pot)) was 20.11 gm and 22.04 gm and 21.60 gm and 16.74 gm and 16.46 gm and 22.65 gm. The “Shoots (gm)” value (Peanuts [2]; single sample (pot)) was 20.46 gm and 22.34 gm and 19.03 gm and 17.77 gm and 20.20 gm and 22.00 gm, the “Total (gm)” value (Peanuts [2]; single sample (pot)) was 40.57 gm and 44.38 gm and 40.63 gm and 34.51 gm and 36.66 gm and 44.65 gm and the “Percent Change v. Control, Roots” value (Wheat [3]) was 117%. The “Percent Change v. Control, Shoots” value (Wheat [3]) was 266%, the “Percent Change v. Control, Total” value (Wheat [3]) was 135% and the “Root/Shoot Ratio” value (Wheat [3]) was 4.39. The “Roots (gm), Average” value (Wheat [3]; average of samples) was 45.40 gm, the “Shoots (gm), Average” value (Wheat [3]; average of samples) was 10.35 gm and the “Total (gm), Average” value (Wheat [3]; average of samples) was 55.74 gm. For the same compound, the “Percent Change v. Control, Roots” value (Corn [4]) was 11%, the “Percent Change v. Control, Shoots” value (Corn [4]) was 103% and the “Percent Change v. Control, Total” value (Corn [4]) was 46%. For the same compound, the “Root/Shoot Ratio” value (Corn [4]) was 0.90, the “Roots (gm), Average” value (Corn [4]; average of samples) was 51.38 gm and the “Shoots (gm), Average” value (Corn [4]; average of samples) was 57.31 gm. The “Total (gm), Average” value (Corn [4]; average of samples) was 108.69 gm, the “Roots (gm)” value (Corn [4]; single sample (pot)) was 42.40 gm and 48.44 gm and 52.48 gm and 56.22 gm and 42.18 gm and 66.57 gm and the “Shoots (gm)” value (Corn [4]; single sample (pot)) was 61.80 gm and 46.17 gm and 50.59 gm and 61.12 gm and 67.57 gm and 56.61 gm. The “Total (gm)” value (Corn [4]; single sample (pot)) was 104.20 gm and 84.61 gm and 103.07 gm and 117.34 gm and 109.75 gm and 123.18 gm, the “Percent Change v. Control, Roots” value (Peanuts [5]) was 92% and the “Percent Change v. Control, Shoots” value (Peanuts [5]) was 108%. The “Percent Change v. Control, Total” value (Peanuts [5]) was 100%, the “Root/Shoot Ratio” value (Peanuts [5]) was 1.02 and the “Roots (gm), Average” value (Peanuts [5]; average of samples) was 32.74 gm. The “Shoots (gm), Average” value (Peanuts [5]; average of samples) was 32.15 gm, the “Total (gm), Average” value (Peanuts [5]; average of samples) was 64.89 gm and the “Roots (gm)” value (Peanuts [5]; single sample (pot)) was 27.67 gm and 35.04 gm and 37.38 gm and 31.10 gm and 31.69 gm and 33.55 gm. The “Shoots (gm)” value (Peanuts [5]; single sample (pot)) was 28.38 gm and 30.34 gm and 33.84 gm and 32.35 gm and 36.17 gm and 31.82 gm, the “Total (gm)” value (Peanuts [5]; single sample (pot)) was 56.05 gm and 65.38 gm and 71.22 gm and 63.45 gm and 67.86 gm and 65.37 gm and the “Percent Change v. Control, Roots” value (Wheat [6]) was 14%. The “Percent Change v. Control, Shoots” value (Wheat [6]) was 108%, the “Percent Change v. Control, Total” value (Wheat [6]) was 26% and the “Root/Shoot Ratio” value (Wheat [6]) was 4.06. For the same compound, the “Roots (gm), Average” value (Wheat [6]; average of samples) was 23.93 gm, the “Shoots (gm), Average” value (Wheat [6]; average of samples) was 5.89 gm and the “Total (gm), Average” value (Wheat [6]; average of samples) was 29.83 gm. For the same compound, the “Shoots (gm)” value (Wheat [6]; single sample (pot)) was 7.48 gm and 7.53 gm and 4.44 gm and 4.62 gm and 4.00 gm and 7.28 gm, the “Percent Change v. Control, Roots” value (Corn [7]; 0.001 M) was 2% and the “Percent Change v. Control, Shoots” value (Corn [7]; 0.001 M) was 5%. The “Percent Change v. Control, Total” value (Corn [7]; 0.001 M) was 3%, the “Root/Shoot Ratio” value (Corn [7]; 0.001 M) was 1.04 and the “Roots (gm), Average” value (Corn [7]; 0.001 M) was 19.65 gm. The “Shoots (gm), Average” value (Corn [7]; 0.001 M) was 18.85 gm, the “Total (gm), Average” value (Corn [7]; 0.001 M) was 38.50 gm and the “Roots (gm)” value (Corn [7]; 0.001 M) was 18.90 gm and 17.20 gm and 27.00 gm and 19.10 gm and 18.10 gm and 17.60 gm. For the same compound, the “Shoots (gm)” value (Corn [7]; 0.001 M) was 21.10 gm and 14.00 gm and 17.60 gm and 22.00 gm and 18.90 gm and 19.50 gm, the “Total (gm)” value (Corn [7]; 0.001 M) was 40.00 gm and 31.20 gm and 44.60 gm and 41.10 gm and 37.00 gm and 37.10 gm and the “Percent Change v. Control, Roots” value (Corn [7]; 0.01 M) was 9%. The “Percent Change v. Control, Shoots” value (Corn [7]; 0.01 M) was 7%, the “Percent Change v. Control, Total” value (Corn [7]; 0.01 M) was 8% and the “Root/Shoot Ratio” value (Corn [7]; 0.01 M) was 1.09. The “Roots (gm), Average” value (Corn [7]; 0.01 M) was 20.92 gm, the “Shoots (gm), Average” value (Corn [7]; 0.01 M) was 19.17 gm and the “Total (gm), Average” value (Corn [7]; 0.01 M) was 40.09 gm. For the same compound, the “Roots (gm)” value (Corn [7]; 0.01 M) was 16.20 gm and 25.10 gm and 24.10 gm and 20.00 gm and 15.30 gm and 24.80 gm, the “Shoots (gm)” value (Corn [7]; 0.01 M) was 18.60 gm and 22.10 gm and 23.00 gm and 16.60 gm and 15.50 gm and 19.70 gm and the “Total (gm)” value (Corn [7]; 0.01 M) was 34.80 gm and 47.20 gm and 47.10 gm and 36.60 gm and 30.80 gm and 44.50 gm. The “Percent Change v. Control, Roots” value (Corn [7]; 0.05 M) was 0%, the “Percent Change v. Control, Shoots” value (Corn [7]; 0.05 M) was −2% and the “Percent Change v. Control, Total” value (Corn [7]; 0.05 M) was −1%. For the same compound, the “Root/Shoot Ratio” value (Corn [7]; 0.05 M) was 1.09, the “Roots (gm), Average” value (Corn [7]; 0.05 M) was 19.20 gm and the “Shoots (gm), Average” value (Corn [7]; 0.05 M) was 17.62 gm. The “Total (gm), Average” value (Corn [7]; 0.05 M) was 36.82 gm, the “Roots (gm)” value (Corn [7]; 0.05 M) was 17.90 gm and 20.40 gm and 17.80 gm and 21.20 gm and 18.70 gm and the “Shoots (gm)” value (Corn [7]; 0.05 M) was 17.40 gm and 20.60 gm and 15.90 gm and 18.40 gm and 15.80 gm. For the same compound, the “Total (gm)” value (Corn [7]; 0.05 M) was 35.30 gm and 41.00 gm and 33.70 gm and 39.60 gm and 34.50 gm.
